Data reported in patent US7544666B2, “NAP derivatives” (Industrial Technology Research Institute, priority 2005, dated 2009).

Key:
[1] = system: Caco-2 cell monolayer; assay: Permeation to Caco-2 cell monolayer; format: in vitro ADME, human; parameters: unit not given here; conditions: 4-hour incubation, initial concentration 500 μM in upper layer
Description: The permeation of NAP and the NAP derivatives was examined using the Caco-2 cell system. Caco-2 cells (1×10^5 cells) were seeded into the polycarbonate film on the upper layer of a 12-well Transwell and incubated at 37° C. for 18 to 26 days. The TEER of the Caco cell monolayer was measured over 350 Ω×cm^2. NAP and the NAP derivatives in the HBSS were added into the upper layer of the Caco-2 cell-seeded Transwell. After 4-hour incubation, the concentration of NAP and the NAP derivatives in the upper and lower layers was measured and analyzed in comparison with the initial concentration (500 μM) by reverse phase HPLC at 210 nm.

[2] = system: scopolamine-induced amnesia rats; assay: Morris water maze in scopolamine-induced amnesia rats; format: in vivo, rat; conditions: 0.25 mg/kg subcutaneous, 5 min after scopolamine 1 mg/kg i.p.; FIG. 11
Description: Scopolamine-induced amnesia […] were used in combination of Morris water maze, a memory and behavior analysis system, to assess the in vivo effects of the NAP derivative BMEC-NAP0701 and NAP.
Sprague-Dawley male rats with body weight of 220-250 g obtained from the National Laboratory Animal Center, Taiwan, were caged in an air-conditioned housing with a temperature of 23±1° C. and kept on an alternating 12-hour light and 12-hour dark schedule with sufficient feed and water. […]
Morris Water Maze was performed with a water maze device containing a stainless pool with a size of 160 cm in diameter, 50 cm in height, and 15 mm in thickness of the wall and a platform with a size of 11 cm in diameter, and 22 cm in height. […] The swimming time and track were recorded by VEDEOMEX-V video tracing system, video recorder, and monitor (Columbus Instruments) and analyzed by Water Maze Program (Columbus Instruments). […]
Late of the third day: Two to four hours after the third day training, the platform was removed from the pool. The trained rats were separately sent to quadrant I and the swimming track was recorded for 60 sec. The time spent in finding the original platform was also recorded. […]
Early of the fifth day: The platform was placed in the quadrant II and submerged beneath water level about 1 cm. The rats were separately sent to quadrant I and the time spent in finding the platform was recorded. […]

[3] = Stability in Hanks' balanced salt solution (HBSS); format: physicochemical; conditions: 37° C., relative to initial conc. in HBSS = 100.00
Description: (§1) The stability of the NAP derivatives prepared by EXAMPLE 1 was measured with the system of human colon cancer cell, Caco-2 cell. Caco-2 cells (1×10^5 cells) were first seeded into a polycarbonate film on the upper layer of a 12-well Transwell and incubated for 18 to 26 days at 37° C. The TEER of the Caco-2 cell monolayer was measured over 350 Ω×cm^2. The stability of the NAP derivatives in the Hanks' balanced salt solutions (HBSS) was measured by the concentration changes of NAP and the NAP derivatives incubated in the HBSS at 37° C. for 4 hours. The stability of the NAP derivatives in the Caco-2 cell system was measured by the procedure described below. NAP and the NAP derivatives in the HBSS were added into the upper layer of the Caco-2 cell-seeded Transwell. After 4-hour incubation, the concentration of NAP and the NAP derivatives in the upper and lower layers was measured and analyzed in comparison with the initial concentration (500 μM) by reverse HPLC at 210 nm.

[4] = system: Caco-2 cell; assay: Stability in the Caco-2 cell system; format: in vitro ADME, human; conditions: 4-hour incubation in Caco-2 Transwell; relative to initial conc. = 100.00 (500 μM)
Description: as §1

## CC[C@H](C)[C@H](NC(=O)[C@H](CO)NC(=O)[C@@H](NC(=O)[C@@H]1CCCN1C(=O)[C@H](C)NC(=O)[C@H](CC(N)=O)NC(=O)c1ccccc1)C(C)C)C(=O)N1CCC[C@H]1C(=O)N[C@@H](CCC(N)=O)C(=O)O [BMEC-NAP0701, Benzoyl-NAPVSIPQ-OH]
[1]
  Conc. at the lover layer: 0.28
[2]
  memory improving effect (time spent in finding the platform vs scopolamine-induced rats): memory improving effect similar to NAP in vivo
[3]
  Conc. after 4-hour in HBSS: 98.62
[4]
  Conc. after 4-hour in Caco-2 cells: 78.97
